Source: patent US12358885B2, “Substituted n-propylamine fused heterocyclic mescaline derivatives” (Enveric Biosciences Canada Inc., priority 2022, dated 2025)
pEC50, pKi: −log10 of the molar value. Where two headings read alike, the source gives them in different places.

Tests used:
5-HT1A receptor [1] = molecular target: T1, 5-HT1A receptor (Homo sapiens, UniProt P08908); assay: 5-HT1A receptor radioligand competition assay (SPA, 8-hydroxy-DPAT [3H]); assay type: binding; conditions: 0.5 nM hot 8-hydroxy-DPAT, membranes containing 5-HT1A
T1 construct: purchased Perkin Elmer 6110501400UA
T1 sequence (P08908 1-422): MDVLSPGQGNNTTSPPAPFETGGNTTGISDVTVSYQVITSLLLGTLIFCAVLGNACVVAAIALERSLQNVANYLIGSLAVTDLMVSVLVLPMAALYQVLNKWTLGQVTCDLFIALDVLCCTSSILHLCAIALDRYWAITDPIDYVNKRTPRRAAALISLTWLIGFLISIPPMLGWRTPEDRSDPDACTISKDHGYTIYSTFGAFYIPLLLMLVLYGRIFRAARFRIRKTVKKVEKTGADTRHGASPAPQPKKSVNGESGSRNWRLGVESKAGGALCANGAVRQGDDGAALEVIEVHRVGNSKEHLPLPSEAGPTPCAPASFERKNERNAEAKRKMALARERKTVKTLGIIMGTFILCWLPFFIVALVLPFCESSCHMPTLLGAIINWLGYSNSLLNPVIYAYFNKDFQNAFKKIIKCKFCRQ

alpha2A receptor = molecular target: T2, alpha2A receptor (Homo sapiens, UniProt P08913); assay: Eurofins Cerep competition binding assay at alpha2A receptor; conditions: 10 μM test ligand; [3H]RX 821002; recombinant receptor in CHO cells
T2 construct: host or cells: CHO cells (membrane preparation)
T2 sequence (P08913 1-465): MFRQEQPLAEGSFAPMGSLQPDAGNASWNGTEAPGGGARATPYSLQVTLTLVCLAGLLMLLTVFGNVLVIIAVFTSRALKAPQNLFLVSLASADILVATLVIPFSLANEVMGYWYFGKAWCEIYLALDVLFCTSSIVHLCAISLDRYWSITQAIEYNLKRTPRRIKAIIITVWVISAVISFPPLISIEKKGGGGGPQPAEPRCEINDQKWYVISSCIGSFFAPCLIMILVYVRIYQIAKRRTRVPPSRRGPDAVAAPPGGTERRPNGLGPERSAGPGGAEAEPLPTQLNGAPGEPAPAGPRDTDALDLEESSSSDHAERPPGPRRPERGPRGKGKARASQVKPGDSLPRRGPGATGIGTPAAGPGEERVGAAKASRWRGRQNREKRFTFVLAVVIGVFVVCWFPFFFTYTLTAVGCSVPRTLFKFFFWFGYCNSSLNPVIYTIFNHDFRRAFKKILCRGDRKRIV

D3 receptor = molecular target: T3, D3 receptor (Homo sapiens, UniProt P35462); assay: Eurofins Cerep competition binding assay at D3 receptor; conditions: 10 μM test ligand, [3H]methylspiperone, recombinant receptor in CHO cells; for inhibition at 10 µM: read-out: D3, percent of control-specific binding
T3 construct: host or cells: CHO cells (membrane preparation)
T3 sequence (P35462 whole entry): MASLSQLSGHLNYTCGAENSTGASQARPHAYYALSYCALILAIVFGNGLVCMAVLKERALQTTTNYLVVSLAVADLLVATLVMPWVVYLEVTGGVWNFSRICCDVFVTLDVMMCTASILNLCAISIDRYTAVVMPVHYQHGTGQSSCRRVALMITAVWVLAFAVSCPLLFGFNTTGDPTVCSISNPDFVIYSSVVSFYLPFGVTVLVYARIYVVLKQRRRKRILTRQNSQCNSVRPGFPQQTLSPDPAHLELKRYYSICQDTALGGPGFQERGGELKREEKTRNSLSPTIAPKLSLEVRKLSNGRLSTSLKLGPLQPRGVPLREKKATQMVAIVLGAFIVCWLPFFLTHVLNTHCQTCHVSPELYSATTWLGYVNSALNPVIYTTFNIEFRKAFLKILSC

5-HT2A receptor = molecular target: T4, 5-HT2A receptor (Homo sapiens, UniProt P28223); assay: biochemical; assay type: binding; conditions: for inhibition at 10 µM: read-out: HT2A, percent of control-specific binding
T4 construct: host or cells: HEK-293 cells (membrane preparation)
T4 sequence (P28223 whole entry): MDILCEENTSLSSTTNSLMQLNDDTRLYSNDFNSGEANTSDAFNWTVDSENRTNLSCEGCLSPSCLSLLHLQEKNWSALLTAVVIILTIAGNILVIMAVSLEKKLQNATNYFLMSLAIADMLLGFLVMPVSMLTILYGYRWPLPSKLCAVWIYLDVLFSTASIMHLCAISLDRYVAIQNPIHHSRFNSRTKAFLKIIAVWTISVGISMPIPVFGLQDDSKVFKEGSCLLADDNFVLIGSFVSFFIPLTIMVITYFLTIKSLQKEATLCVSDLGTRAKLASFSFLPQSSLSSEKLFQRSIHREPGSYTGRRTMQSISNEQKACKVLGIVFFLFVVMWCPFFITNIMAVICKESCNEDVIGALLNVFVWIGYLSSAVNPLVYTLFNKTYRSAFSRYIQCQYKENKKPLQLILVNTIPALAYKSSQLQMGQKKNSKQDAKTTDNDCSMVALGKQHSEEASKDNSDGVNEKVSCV

5-HT1A receptor [2] = molecular target: T1, 5-HT1A receptor; assay: Functional 5-HT1A receptor cAMP assay in CHO-K1/5-HT1A/Gα15 cells; assay type: cell-based
[3] = molecular target: T5, norepinephrine transporter (NET) (Homo sapiens, UniProt P23975); assay: Eurofins Cerep competition binding assay at norepinephrine transporter; conditions: 10 μM test ligand; [3H]nisoxetine; recombinant transporter in CHO cells
T5 construct: host or cells: CHO cells (membrane preparation)
T5 sequence (P23975 whole entry): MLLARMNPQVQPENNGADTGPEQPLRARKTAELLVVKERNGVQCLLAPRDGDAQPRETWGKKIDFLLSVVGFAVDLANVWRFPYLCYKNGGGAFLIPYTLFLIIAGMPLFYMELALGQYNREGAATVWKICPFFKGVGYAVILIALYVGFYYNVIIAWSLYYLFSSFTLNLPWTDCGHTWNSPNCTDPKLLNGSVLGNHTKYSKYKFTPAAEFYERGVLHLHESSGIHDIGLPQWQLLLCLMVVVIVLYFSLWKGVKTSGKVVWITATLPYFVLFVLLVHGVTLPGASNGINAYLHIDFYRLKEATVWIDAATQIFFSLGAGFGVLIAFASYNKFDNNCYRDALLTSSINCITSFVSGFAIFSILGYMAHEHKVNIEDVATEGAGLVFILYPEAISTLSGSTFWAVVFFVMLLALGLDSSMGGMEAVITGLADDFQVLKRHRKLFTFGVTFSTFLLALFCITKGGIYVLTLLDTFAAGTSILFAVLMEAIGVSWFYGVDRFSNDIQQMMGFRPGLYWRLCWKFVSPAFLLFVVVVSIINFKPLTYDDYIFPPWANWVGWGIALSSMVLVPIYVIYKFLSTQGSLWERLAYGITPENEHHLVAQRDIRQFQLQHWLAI

5-HT7 receptor = molecular target: T6, 5-HT7 receptor (Homo sapiens, UniProt P34969); assay: Eurofins Cerep competition binding assay at 5-HT7 receptor; conditions: 10 μM test ligand; [3H]LSD; recombinant receptor in HEK-293 cells
T6 construct: host or cells: HEK-293 cells (membrane preparation)
T6 sequence (P34969 whole entry): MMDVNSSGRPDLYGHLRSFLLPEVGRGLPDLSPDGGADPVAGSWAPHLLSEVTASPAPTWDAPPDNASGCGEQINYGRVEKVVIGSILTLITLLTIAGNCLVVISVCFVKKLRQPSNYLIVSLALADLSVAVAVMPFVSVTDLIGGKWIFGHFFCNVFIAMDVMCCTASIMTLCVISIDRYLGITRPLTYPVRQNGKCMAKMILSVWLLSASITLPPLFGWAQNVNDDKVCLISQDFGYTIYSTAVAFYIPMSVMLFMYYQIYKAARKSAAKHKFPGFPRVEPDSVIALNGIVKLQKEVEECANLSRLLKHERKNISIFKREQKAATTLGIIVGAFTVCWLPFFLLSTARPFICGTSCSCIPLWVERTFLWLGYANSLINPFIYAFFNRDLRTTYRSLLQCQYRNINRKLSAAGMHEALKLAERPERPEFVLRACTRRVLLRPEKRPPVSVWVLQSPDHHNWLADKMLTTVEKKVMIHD

[4] = molecular target: T7, serotonin transporter (SERT) (Homo sapiens, UniProt P31645); assay: biochemical; assay type: binding; conditions: 10 µM
T7 construct: host or cells: CHO cells (membrane preparation)
T7 sequence (P31645 whole entry): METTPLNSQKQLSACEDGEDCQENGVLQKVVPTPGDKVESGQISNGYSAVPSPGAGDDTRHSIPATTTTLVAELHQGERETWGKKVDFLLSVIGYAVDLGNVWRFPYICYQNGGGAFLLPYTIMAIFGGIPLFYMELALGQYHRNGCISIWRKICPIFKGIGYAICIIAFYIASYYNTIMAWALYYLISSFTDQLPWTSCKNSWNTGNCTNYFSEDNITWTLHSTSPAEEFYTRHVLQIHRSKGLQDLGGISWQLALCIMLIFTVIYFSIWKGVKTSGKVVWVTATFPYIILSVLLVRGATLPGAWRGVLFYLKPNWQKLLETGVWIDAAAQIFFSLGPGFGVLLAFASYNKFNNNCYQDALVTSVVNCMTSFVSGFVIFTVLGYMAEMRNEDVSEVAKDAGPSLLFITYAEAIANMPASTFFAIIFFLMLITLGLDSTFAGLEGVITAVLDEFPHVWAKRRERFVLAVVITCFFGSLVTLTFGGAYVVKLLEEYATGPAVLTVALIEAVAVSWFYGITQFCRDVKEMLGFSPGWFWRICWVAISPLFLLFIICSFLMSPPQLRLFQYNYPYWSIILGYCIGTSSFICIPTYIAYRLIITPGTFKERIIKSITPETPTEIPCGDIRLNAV

[5] = molecular target: T8, dopamine transporter (DAT) (Homo sapiens, UniProt Q01959); assay: Eurofins Cerep competition binding assay at dopamine transporter; conditions: 10 μM test ligand; [3H]BTCP; recombinant transporter in CHO cells
T8 construct: host or cells: CHO cells (membrane preparation)
T8 sequence (Q01959 whole entry): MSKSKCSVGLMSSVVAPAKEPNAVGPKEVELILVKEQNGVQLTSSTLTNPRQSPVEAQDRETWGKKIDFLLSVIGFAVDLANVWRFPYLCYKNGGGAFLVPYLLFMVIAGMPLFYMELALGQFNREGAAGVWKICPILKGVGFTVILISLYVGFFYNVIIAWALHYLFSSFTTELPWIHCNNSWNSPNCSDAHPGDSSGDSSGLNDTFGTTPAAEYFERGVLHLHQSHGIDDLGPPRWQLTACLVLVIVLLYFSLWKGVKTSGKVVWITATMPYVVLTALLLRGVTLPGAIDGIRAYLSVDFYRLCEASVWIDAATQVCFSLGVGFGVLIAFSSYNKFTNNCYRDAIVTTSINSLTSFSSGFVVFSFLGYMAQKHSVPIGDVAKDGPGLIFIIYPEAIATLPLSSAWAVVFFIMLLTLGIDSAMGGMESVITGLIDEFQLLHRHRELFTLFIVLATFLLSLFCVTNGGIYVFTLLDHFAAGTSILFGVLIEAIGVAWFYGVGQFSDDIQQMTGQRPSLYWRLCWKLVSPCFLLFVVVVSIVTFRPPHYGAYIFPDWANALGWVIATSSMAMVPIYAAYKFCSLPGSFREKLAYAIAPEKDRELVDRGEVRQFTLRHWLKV

5-HT2B receptor = molecular target: T9, 5-HT2B receptor (Homo sapiens, UniProt P41595); assay: Eurofins Cerep competition binding assay at 5-HT2B receptor; conditions: 10 μM test ligand; [3H]mesulergine; recombinant receptor in CHO cells
T9 construct: host or cells: CHO cells (membrane preparation)
T9 sequence (P41595 whole entry): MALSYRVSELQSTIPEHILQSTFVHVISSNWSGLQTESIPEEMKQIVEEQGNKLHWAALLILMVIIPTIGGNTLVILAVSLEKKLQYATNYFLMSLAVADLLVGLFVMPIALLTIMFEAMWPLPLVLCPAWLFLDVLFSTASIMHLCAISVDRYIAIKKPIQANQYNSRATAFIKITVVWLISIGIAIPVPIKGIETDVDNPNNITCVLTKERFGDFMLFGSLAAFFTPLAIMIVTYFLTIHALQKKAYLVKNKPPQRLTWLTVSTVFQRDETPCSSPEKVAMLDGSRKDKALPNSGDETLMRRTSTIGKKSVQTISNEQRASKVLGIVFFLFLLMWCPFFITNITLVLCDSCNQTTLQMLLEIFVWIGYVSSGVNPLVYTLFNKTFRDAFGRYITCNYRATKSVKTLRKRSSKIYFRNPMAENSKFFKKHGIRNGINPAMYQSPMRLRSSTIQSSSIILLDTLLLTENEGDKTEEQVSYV

5-HT1A receptor [6] = molecular target: T1, 5-HT1A receptor; assay: Eurofins Cerep competition binding assay at 5-HT1A receptor; conditions: 10 μM test ligand; [3H]8-OH-DPAT; recombinant receptor in HEK-293 cells
MT1 receptor = molecular target: T10, MT1 receptor (Homo sapiens, UniProt P48039); assay: Eurofins Cerep competition binding assay at MT1 receptor; conditions: 10 μM test ligand; [125I]2-iodomelatonin; recombinant receptor in CHO cells
T10 construct: host or cells: CHO cells (membrane preparation)
T10 sequence (P48039 whole entry): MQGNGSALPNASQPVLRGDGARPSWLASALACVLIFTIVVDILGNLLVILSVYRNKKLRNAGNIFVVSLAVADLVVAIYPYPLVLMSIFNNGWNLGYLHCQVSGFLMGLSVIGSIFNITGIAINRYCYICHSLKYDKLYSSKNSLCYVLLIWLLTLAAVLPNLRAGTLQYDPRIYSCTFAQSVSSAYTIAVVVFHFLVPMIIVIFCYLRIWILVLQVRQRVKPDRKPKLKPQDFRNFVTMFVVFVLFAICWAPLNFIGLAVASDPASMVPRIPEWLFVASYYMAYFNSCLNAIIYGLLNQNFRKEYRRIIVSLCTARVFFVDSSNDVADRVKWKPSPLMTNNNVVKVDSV

[7] = 10 μM test molecule, [125I](±)DOI, recombinant receptor in HEK-293 cells

| SMILES | α-2A, percent of control-specific binding (alpha2A receptor) | inhibition at 10 µM (D3 receptor) | inhibition at 10 µM (5-HT2A receptor; [7]) | further results |
| --- | --- | --- | --- | --- |
| CC(Cc1ccc2c(c1)OCO2)CN1CCCC1 (racemic) [A(II)] | – | – | – | pKi (5-HT1A receptor [1]): 5.10 |
| COc1ccc2cccc(CCNC(C)=O)c2c1 [Agomelatine] | 2% | 6% | 61% | – |
| CC(NC(C)(C)C)C(=O)c1cccc(Cl)c1 (centres unmarked) [Bupropion] | 2% | 3% | – | – |
| CCN(CC)CCCc1ccc2c(c1)OCO2 [C(I)] | – | – | – | pKi (5-HT1A receptor [1]): 5.54 |
| COc1cc2c(cc1CCCN1CCCC1)OCO2 [C(V)] | – | – | – | pKi (5-HT1A receptor [1]): 5.30; pEC50 (5-HT1A receptor [2]): 3.93 |
| OCCNCCCc1cc2c(cc1Br)OCO2 [C(XIII)] | – | – | – | pEC50 (5-HT1A receptor [2]): 4.64 |
| COc1cc(CC(C)N)c(OC)cc1Br (centres unmarked) [DOB, reference compound] | 66% | – | – | D3, percent of control-specific binding (D3 receptor): 25%; NET, percent of control-specific binding [3]: 6%; HT7, percent of control-specific binding (5-HT7 receptor): 65%; SERT, percent of control-specific binding [4]: 53%; DAT, percent of control-specific binding [5]: 3%; HT2B, percent of control-specific binding (5-HT2B receptor): 97%; HT2A, percent of control-specific binding (5-HT2A receptor; [7]): 100%; HT1A, percent of control-specific binding (5-HT1A receptor [6]): 75%; MT1, percent of control-specific binding (MT1 receptor): −3% |
| CNCC[C@H](Oc1cccc2ccccc12)c1cccs1 [Duloxetine] | 54% | 66% | – | inhibition at 10 µM (5-HT2A receptor): 95% |
| COc1cc2c(cc1CCC(=O)N1CCCC1)OCO2 [F(V)] | – | – | – | pKi (5-HT1A receptor [1]): 3.44; pEC50 (5-HT1A receptor [2]): 5.00 |
| Brc1cc2c(cc1CCC1=NCCO1)OCO2 [G(V)] | – | – | – | pEC50 (5-HT1A receptor [2]): 3.89 |
| CN(C)CCCN1c2ccccc2CCc2ccccc21 [Imipramine] | 57% | 92% | 97% | – |
| COc1ccc2[nH]cc(CCNC(C)=O)c2c1 [Melatonin] | −7% | 2% | – | – |
| O=c1n(CCCN2CCN(c3cccc(Cl)c3)CC2)nc2ccccn12 [Trazodone] | 91% | 89% | – | – |
| N#Cc1ccc2[nH]cc(CCCCN3CCN(c4ccc5oc(C(N)=O)cc5c4)CC3)c2c1 [Vilazodone] | 65% | 99% | 94% | – |
| COc1cc(CCN)cc(OC)c1OC [mescaline, 3,4,5 trimethoxyphenethylamine] | 57% | -13% | 79% | – |
| CCCOc1c(OC)cc(CCN)cc1OC [proscaline] | 40% | 4% | 91% | – |
| NCCc1c[nH]c2ccc(O)cc12 [serotonin] | 18% | 73% | – | – |
| N[C@@H](Cc1c[nH]c2ccccc12)C(=O)O [tryptophan] | −4% | -23% | -1% | – |
| Cc1ccc(Sc2ccccc2N2CCNCC2)c(C)c1 [vortioxetine] | 62% | 88% | 90% | – |
